Measurements reported in patent publication US20060100168A1, “Method of treating cancer using adenosine and its analogs” (The Trustee of Boston University, priority 2002, published 2006).
Entries after “also recorded” stand apart in the source; their conditions may differ.

Tests used:
MCF-7 cells [1] = assay: Anchorage-independent growth (soft agar) assay; type: cell-based, human; details: for Effect on anchorage-independent growth (colony formation), in words: different concentrations
Experimental: Anchorage-independent growth (soft agar) assay: Soft agar assay was performed as described (40) with the following modifications. Ligands were added into the bottom and top agar before plating into 6-well plates. Cells were treated with trypsin (Invitrogen, Carlsbad, Calif.) for 5 minutes in a 37° C. incubator and pipetted several times so that most cells were in single cell forms. Cells were counted with a hemacytometer (Hausser Scientific/VWR, So. Plainfield, N.J.), and 10,000 cells were mixed with top agar and plated into each well. After the top agar had solidified, two ml of medium containing the same treatment was added on top of the agar. This covering medium was changed every two days during culture. After two weeks of culture, each well was counted for the number of colonies formed on an Olympus IX70 microscope under 40× optical amplification. A cell colony was defined as any cluster of cells that contain more than 3 cells. The average of counts from 3 random optical fields for each well was taken as the colony number and analyzed. Each treatment was performed in triplicates. The averages and standard deviations shown in the figures were calculated based on triplicate experiments.

MCF-7 cells [2] = assay: Cell cycle analysis by flow cytometry; type: cell-based, human; details: 100 μM, except adenosine (500 μM) and inosine (1 mM); for Percentage change of diploid (G0 or G1 phase) population compared to vehicle-treated cells: first number in parentheses; for Percentage change of S phase population compared to vehicle-treated cells: second number in parentheses; for Percentage change of tetraploid (G2 or M phase) population compared to vehicle-treated cells: third number in parentheses
Experimental: (§1) Flow Cytometry and Apoptosis Analysis: Cells were detached from tissue culture plates by trypsin treatment. Cells were collected by centrifugation at 1200 g for 5 minutes and washed once with PBS. Staining of cells with propidium iodide and analysis on a flow cytometer (FACScan, Becton Dickinson, Research Triangle Park, N.C.) was performed as described before (42). Data were analyzed with CellQuest software (Becton Dickinson, Research Triangle Park, N.C.). The percentage of cells appearing with a ploidy level smaller than a diploid content was calculated as an estimate of cells undergoing apoptosis.

MCF-7 cells [3] = assay: Apoptosis by propidium iodide staining and flow cytometry (sub-diploid events); type: cell-based, human; details: 100 μM; for Apoptosis: 2 days of treatment, except adenosine (500 μM) and inosine (1 mM), number of apoptotic cells compared to vehicle control (set to 1), average ± SD; for Apoptosis, in words: two days
Experimental: as §1

[4] = system: estrogen receptor α (ERα); assay: ERα protein level by Western blot in MCF-7 cells; type: cell-based, human; details: for ERα Level: 12 hours, 100 μM, except adenosine (500 μM), Western blot quantitated, vehicle control set to 1, average of two experiments; for ERα protein level, in words: Western blot
Experimental: Western Blot Analysis: Cells were washed three times in cold 1×PBS, and collected by scraping on ice. Western blot analysis was performed as we described before with the chemiluminescence method (41). […] Cyclin A, cyclin B1 and p27 antibodies were used at 1:500 dilutions. Cyclin E antibody was used at 1:1000 dilutions.

MCF-7 cells [5] = assay: Anchorage-dependent growth assay (viable cell count, Trypan Blue); type: cell-based, human; details: for Cell Growth / Effect on MCF-7 cell growth, in words: MCF-7; for Cell Growth: 2 days of treatment, compounds at 100 μM, except adenosine (500 μM) and inosine (1 mM), normalized to vehicle control (set to 1), negative = decrease vs count before treatment, average ± SD, three experiments; for Effect on MCF-7 cell growth, in words: summary of Table 1 and discussion
Experimental: Anchorage-dependent growth assay: Cells were plated into 6-well plates and grown overnight before treatments. The seeding concentration of MCF-7 cells was 2×10^5/well, which was determined during preliminary experiments as not allowing the cells to reach confluency within 3 days. Cells were treated either with vehicle or ligands, as indicated. Cells were detached by incubation with trypsin (Invitrogen, Carlsbad, Calif.) and counted with a hemacytometer before or after treatment.

MCF-7 cells [6] = assay: Thymidine incorporation assay; type: cell-based, human; details: treated 24 hours before thymidine
Experimental: (§2) Thymidine Incorporation Assay. Thymidine incorporation assays were performed as described (Zhang, Y., Wang, Z., and Ravid, K. The cell cycle in polyploid megakaryocytes is associated with reduced activity of cyclin B1-dependent cdc2 kinase. J Biol Chem, 271: 4266-4272, 1996) with modifications. Rat bone marrow cells were cultured in 25 cm^2 flasks at a concentration of 20×10^6 cells per 2 ml. After drug treatment for 24 hours, cells were incubated with ^3H-thymidine at a final concentration of 3 μCi/ml for 8 hours. For MCF-7 cells, cells were cultured in 6-well plates and incubated with ^3H-thymidine for 2 hours after drug treatment. Cells were divided into two portions, sixty percent of which were processed as described (Id.) to obtain tritium counts. The rest of the cells were lysed with Western blotting lysis buffer and protein concentrations were determined by Bio-Rad protein assay reagent (Bio-Rad, Hercules, Calif.). Tritium counts were normalized with corresponding protein concentrations to account for cell number variations.

[7] = system: primary rat bone marrow cells; assay: Thymidine incorporation assay; type: cell-based; details: 24 hours, IB-MECA at 100 μM
Experimental: as §2

Row | SMILES | inhibition at 1000 µM (MCF-7 cells [1]; Homo sapiens, MCF7, 336 h, MCF-7 soft agar, 1 mM, two weeks, read-out: Inhibition of colony-forming ability) | Effect on anchorage-independent growth (colony formation), in words (MCF-7 cells [1]; MCF-7 soft agar, two weeks) | Percentage change of diploid (G0 or G1 phase) population compared to vehicle-treated cells (MCF-7 cells [2]) | Percentage change of S phase population compared to vehicle-treated cells (MCF-7 cells [2]) | Percentage change of tetraploid (G2 or M phase) population compared to vehicle-treated cells (MCF-7 cells [2]) | Apoptosis (MCF-7 cells [3]) | ERα Level [4] | Cell Growth (MCF-7 cells [5]) | Apoptosis, in words (MCF-7 cells [3]) | ERα protein level, in words [4] | Effect on MCF-7 cell growth, in words (MCF-7 cells [5]) | Thymidine incorporation decreased to (MCF-7 cells [6]) | Thymidine incorporation reduced to [7] | Effect on MCF-7 cell growth, in words (MCF-7 cells [5]; listed as 2-chloror-deoxyadenosine) | Effect of A3AR antagonist on IB-MECA inhibitory effect on growth (MCF-7 cells [1]; MCF-7, antagonist up to 1 μM, not shown) | Cell Cycle Arrest (position of arrest) (MCF-7 cells [2]; flow cytometry) | Effect of nucleoside transporter inhibitor on growth inhibitory effect of IB-MECA (MCF-7 cells [5]; 10 μM) | Effect on cell growth by itself (MCF-7 cells [5]; at higher concentrations than 10 μM)
1 | Nc1ncnc2c1ncn2[C@@H]1O[C@H](CO)[C@@H](O)[C@H]1O [Adenosine] | ~50% | dose-dependent inhibition of colony formation | −25% | −56% | 97% | 1.06 ± 0.17 | 1.07 | 0.49 ± 0.04 | – | – | – | – | – | – | – | – | – | –
2 | Nc1nc(Cl)nc2c1ncn2[C@@H]1O[C@H](CO)[C@@H](O)[C@H]1O [CADO, 2-chloro-adenosine] | – | – | −11% | 11% | 20% | 0.84 ± 0.6 | 0.41 | −0.02 ± 0.02 | without inducing apoptosis | significantly inhibited cell growth and ERα levels | significantly inhibited cell growth | – | – | – | – | – | – | –
3 | OC[C@H]1O[C@@H](n2cnc3c(NC4CCCC4)nc(Cl)nc32)[C@H](O)[C@@H]1O [CCPA, 2-Chloro-N^6-cyclopentyladenosine] | – | did not inhibit | 3% | −18% | 11% | 0.49 ± 0.12 | 1.16 | 0.79 ± 0.16 | – | – | no significant effect on cell growth; also recorded: did not have a significant effect | – | – | – | – | – | – | –
4 | CCNC(=O)[C@H]1O[C@@H](n2cnc3c(N)nc(NCCc4ccc(CCC(=O)O)cc4)nc32)[C@H](O)[C@@H]1O [CGS21680, 2-p-(2-Carboxyethyl)phenethylamino-5′-N-ethylcarboxamidoadenosine] | – | did not inhibit | – | – | – | – | – | – | – | – | did not have a significant effect | – | – | – | – | – | – | –
5 | Nc1nc(Cl)nc2c1ncn2[C@H]1C[C@H](O)[C@@H](CO)O1 [CdA, 2-chloro-2′-deoxyadenosine] | – | – | −69% | 165% | 20% | 1.80 ± 0.17 | – | 0.13 ± 0.01 | induced cellular apoptosis | – | – | 43% | 32% | significantly inhibited; also recorded: as effective at 1 μM (not shown) as at 100 μM | – | – | – | –
6 | Nc1ncnc2c1ncn2[C@@H]1O[C@H](CO)C[C@H]1O [Cordycepin, 3′-deoxyadenosine] | – | – | −26% | 10% | 62% | 0.43 ± 0.07 | 0.58 | 0.24 ± 6 | without inducing apoptosis | significantly inhibited cell growth and ERα levels | significantly inhibited cell growth | – | – | – | – | – | – | –
7 | OC[C@H]1O[C@@H](n2cnc3c(O)ncnc32)[C@H](O)[C@@H]1O [Inosine] | – | No effect | −24% | 43% | 8% | 1.02 ± 0.14 | – | 0.90 ± 0.12 | – | – | no significant effect on cell growth | – | – | – | – | – | – | –
8 | CCOC(=O)C1=C(C)NC(c2ccccc2)=C(C(=O)OCc2ccccc2)C1C#Cc1ccccc1 (centres unmarked) [MRS1191] | – | – | – | – | – | – | – | – | – | – | – | – | – | – | did not abolish | – | – | –
9 | CCNC(=O)[C@H]1O[C@@H](n2cnc3c(N)ncnc32)[C@H](O)[C@@H]1O [NECA, 5′-(N-Ethylcarboxamido)adenosine] | – | did not inhibit | 0% | 3% | −3% | 0.99 ± 0.05 | 0.92 | 0.90 ± 0.16 | – | no significant change | no significant effect on cell growth; also recorded: did not have a significant effect | – | – | – | – | Not Detectable | – | –
10 | OCCN(CCO)c1nc(N2CCCCC2)c2nc(N(CCO)CCO)nc(N3CCCCC3)c2n1 [dipyridamole] | – | – | – | – | – | – | – | – | – | – | – | – | – | – | – | – | did not prevent the growth inhibitory effect of IB-MECA | inhibitory effect on cell growth
